Measured values: patent US12016829B2, “Pharmaceutical composition and method for treating seizure disorders” (Pike Therapeutics Inc, priority 2019, dated 2024)
Like-named read-outs stand apart in the source and are kept apart here.

Legend:
[1] = Oral bioavailability, AUC and plasma concentration of CBD; assay type: in vivo, patient
Source text: When a medication is orally administered, its bioavailability generally decreases due to incomplete absorption and first-pass metabolism and may vary from patient to patient. The compositions of the disclosure overcome these problems because in transdermal delivery, active agent is delivered directly into systemic circulation through the skin, and it escapes the first pass hepatic metabolism therefore to achieve the desired therapeutic activity less drug is required, resulting into less adverse effects or side effects.
So, the actual dose delivering to patient upon oral delivery is described in Table 3
So, 50 sqcm patch with 7.5 ug/sqcm/hr flux will deliver 9 mg of drug in one day. And 100 sqcm of patch will deliver 18 mg of drug with same flux profile.

[2] = significant number of patients, cited from earlier work
[3] = cited from earlier work

Row | SMILES | bioavailability ([1]; human, in vivo, oral, read-out: average bioavailability taken for calculation) [%] | Avg. Oral Plasma Concentration ([1]; oral dose 5 mg/kg/day) [ng/mL] | Avg. Oral Plasma Concentration ([1]; oral dose 10 mg/kg/day) [ng/mL] | reduction of total convulsive frequency ([2]; TRE (Dravet syndrome, myoclonic absence seizures, FIRES)) | seizure status at the end of three months treatment [2] | Oral AUC ([3]; oral dose 5 mg/kg/day) [ng·h/mL] | Oral AUC ([3]; oral dose 10 mg/kg/day) [ng·h/mL] | share of the administered dose that reaches systemic circulation ([3]; oral administration, hepatic first pass metabolism)
1 | C=C(C)[C@@H]1CCC(C)=C[C@H]1c1c(O)cc(CCCCC)cc1O [CBD, 2-[(1R,6R)-6-isopropenyl-3-methylcyclohex-2-en-1-yl]-5-pentylbenzene-1,3-diol] | 15 | 10.0 | 30.0 | greater than 50% | seizure free | 241 | 722 | 
2 | CCCCCc1cc(O)c2c(c1)OC(C)(C)c1ccc(C)cc1-2 [Cannabinol] |  |  |  |  |  |  |  | 10%-20%
